Assay results as given in patent EP4549424A1, “NEW LITHIUM EXTRACTING AGENT AND LIQUID ORGANIC MIXTURE THEREOF, AND METHOD FOR EXTRACTING LITHIUM BY MEANS OF EXTRACTION” (Beijing Salt Lake Technology Development Company Limited, priority 2022, dated 2024).

How the values were obtained:
Settings in all cases: organic phase and phase ratio per example
[1] = Liquid-liquid extraction from aqueous lithium-containing solution, ICP detection: sodium;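 further: sodium measured by inductively coupled plasma optical emission spectrometry in the diluted aqueous phase left after shaking with the organic phase and phase separation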
[2] = Liquid-liquid extraction from aqueous lithium-containing solution, ICP detection: lithium;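 further: component concentrations in the aqueous phase were measured by inductively coupled plasma optical emission spectrometry after shaking and phase separation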
[3] = Liquid-liquid extraction from aqueous lithium-containing solution, ICP detection: potassium;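 further: analysis by ICP optical emission spectrometry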
[4] = feed B7 (cLi 0.833, cNa 55.60, cK 5.37 g/L, pH 12.05), 26°C
[5] = feed B1 (cLi 0.807, cNa 56.12 g/L, pH 11.48)
[6] = feed B3 (cLi 0.937, cNa 119.10, cK 43.03 g/L, pH 9.60)
[7] = feed B5 (cLi 0.261, cNa 39.98, cK 7.61 g/L, pH 9.49)
[8] = feed B2 (cLi 0.947, cNa 51.63 g/L, pH 10.77)

For `CC(=O)c1cc(OCc2ccccc2)ccc1O` [Example 32, 2-hydroxy-5-benzyloxyacetophenone], the “extraction rate for sodium ions” value [1, 4] was 7.8%, the “extraction rate for lithium ions” value [2, 4] was 46.6% and the “separation factor of Li/Na” value [2, 4] was 10.3. For the same molecule, the “cK, remaining aqueous phase R1” value [3, 4] was 5.01 g/L and the “extraction rate for potassium ions” value [3, 4] was 6.7%.

In the case of `CCCCCCOc1ccc(C(=O)c2ccccc2)c(O)c1` [Example 8, 4-hyxyloxy-2-hydroxydibenzophenone], the “extraction rate for sodium ions” value [1, 5] is reported as 6.5%, the “extraction rate for lithium ions” value [2, 5] is reported as 67.0% and the “separation factor of Li/Na” value [2, 5] is reported as 29.5.

With `CC1=NN(c2ccccc2)C(=O)C1C(=O)c1ccccc1` (stereo not shown) [Comparative Example 7, 1-phenyl-3-methyl-4-benzoyl-5-pyrazolone, reference compound] the “extraction rate for sodium ions” value [1, 6] was 1.09%, the “extraction rate for lithium ions” value [2, 6] was 1.28% and the “separation factor of Li/Na” value [2, 6] was 1.17. For the same molecule, the “cK, remaining aqueous phase R1” value [3, 6] was 42.96 g/L.

With `Cc1ccc(C(=O)CC(=O)C(F)(F)F)cc1` [Comparative Example 6, 4,4,4-trifluoro-1-(4-tolyl)-1,3-butanedione, reference compound] the “extraction rate for sodium ions” value [1, 6] was 3.30%, the “extraction rate for lithium ions” value [2, 6] was 81.11% and the “separation factor of Li/Na” value [2, 6] was 125.8. For the same molecule, the “cK, remaining aqueous phase R1” value [3, 6] was 42.11 g/L.

With `CCCCCCCCOc1cc(O)c(C(=O)c2ccccc2)cc1[N+](=O)[O-]` [Example 13, 4-octyloxy-5-nitro-2-hydroxydibenzophenone] the “extraction rate for sodium ions” value [1, 6] was 5.2%, the “extraction rate for lithium ions” value [2, 6] was 64.7% and the “separation factor of Li/K” value [2, 6] was 39.9. The “separation factor of Li/Na” value [2, 6] was 33.2 and the “extraction rate for potassium ions” value [3, 6] was 4.4%.

For `CC(=O)CC(=O)c1ccccc1` [Comparative Example 1, benzoyl acetone, reference compound], the “extraction rate for sodium ions” value [1, 6] was 5.43%, the “extraction rate for lithium ions” value [2, 6] was 53.0% and the “separation factor of Li/Na” value [2, 6] was 19.6. For the same molecule, the “cK, remaining aqueous phase R1” value [3, 6] was 41.79 g/L.

With `CCCCCCCCCCCCCCCCCC(=O)CC(=O)c1ccccc1` [Comparative Example 5, stearoylbenzoylmethane, reference compound] the “cNa, remaining aqueous phase R1” value [1, 6] was 113.57 g/L, the “extraction rate for sodium ions” value [1, 6] was 4.64% and the “cLi, remaining aqueous phase R1” value [2, 6] was 0.577 g/L. For the same molecule, the “extraction rate for lithium ions” value [2, 6] was 38.42%, the “separation factor of Li/Na” value [2, 6] was 12.8 and the “cK, remaining aqueous phase R1” value [3, 6] was 41.03 g/L.

For `CC(=O)CC(=O)c1ccccc1` [Comparative Example 2, benzoyl acetone, reference compound], the “extraction rate for sodium ions” value [1, 7] was 4.45%, the “extraction rate for lithium ions” value [2, 7] was 23.4% and the “separation factor of Li/Na” value [2, 7] was 6.54. The “cK, remaining aqueous phase R1” value [3, 7] was 7.52 g/L.

For `CC(=O)c1ccc(OCc2ccccc2)cc1O` [Example 6, 4-benzyloxy-2-hydroxyacetophenone], the “extraction rate for sodium ions” value [1, 5] was 1.4%, the “extraction rate for lithium ions” value [2, 5] was 34.7% and the “separation factor of Li/Na” value [2, 5] was 37.7.

In the case of `CC(O)C(=O)c1ccccc1` (stereo not shown) [Example 3, 2-hydroxypropiophenone], the “cNa, remaining aqueous phase R1” value [1, 5] is reported as 52.10 g/L, the “extraction rate for sodium ions” value [1, 5] is reported as 7.2% and the “cLi, remaining aqueous phase R1” value [2, 5] is reported as 0.383 g/L. The “extraction rate for lithium ions” value [2, 5] was 52.5% and the “separation factor of Li/Na” value [2, 5] was 14.3.

For `CCC(O)C(=O)c1ccccc1` (single isomer, unassigned) [Example 4, 2-hydroxybutyrophenone], the “extraction rate for sodium ions” value [1, 5] was 4.8%, the “extraction rate for lithium ions” value [2, 5] was 60.1% and the “separation factor of Li/Na” value [2, 5] was 29.8.

With 2-hydroxydibenzophenone [Example 2] the “cNa, remaining aqueous phase R1” value [1, 5] was 50.23 g/L, the “extraction rate for sodium ions” value [1, 5] was 10.5% and the “cLi, remaining aqueous phase R1” value [2, 5] was 0.362 g/L. The “extraction rate for lithium ions” value [2, 5] was 55.1% and the “separation factor of Li/Na” value [2, 5] was 10.5.

In the case of `CC(=O)c1cccc([N+](=O)[O-])c1O` [Example 34, 2-hydroxy-3-nitrocetophenone], the “extraction rate for sodium ions” value [1, 4] is reported as 8.17%, the “extraction rate for lithium ions” value [2, 4] is reported as 93.28% and the “separation factor of Li/Na” value [2, 4] is reported as 156. For the same molecule, the “extraction rate for potassium ions” value [3, 4] was 4.5%.

For `CC(=O)c1c(O)cccc1[N+](=O)[O-]` [Example 36, 2-hydroxy-6-nitrocetophenone], the “extraction rate for sodium ions” value [1, 4] was 8.2%, the “extraction rate for lithium ions” value [2, 4] was 81.1% and the “separation factor of Li/Na” value [2, 4] was 48. For the same molecule, the “extraction rate for potassium ions” value [3, 4] was 9.3%.

With 2-hydroxydibenzophenone [Example 29] the “extraction rate for sodium ions” value [1, 8] was 2.32%, the “extraction rate for lithium ions” value [2, 8] was 73.3% and the “separation factor of Li/Na” value [2, 8] was 72.8.

For `O=C(c1ccccc1)c1cc(Cl)ccc1O` [Example 38, 2-hydroxy-5-chlorodibenzophenone], the “extraction rate for sodium ions” value [1, 4] was 8.7%, the “extraction rate for lithium ions” value [2, 4] was 56.06% and the “separation factor of Li/Na” value [2, 4] was 13.5. For the same molecule, the “cK, remaining aqueous phase R1” value [3, 4] was 4.99 g/L and the “extraction rate for potassium ions” value [3, 4] was 7.1%.

For `COc1ccc(C(C)=O)c(O)c1OC` [Example 33, 2-hydroxy-3,4-dimethoxyacetophenone], the “extraction rate for sodium ions” value [1, 4] was 11.94%, the “extraction rate for lithium ions” value [2, 4] was 50.06% and the “separation factor of Li/Na” value [2, 4] was 7.4. For the same molecule, the “cK, remaining aqueous phase R1” value [3, 4] was 4.95 g/L and the “extraction rate for potassium ions” value [3, 4] was 7.8%.

In the case of `O=C(CC(=O)c1ccccc1)c1ccccc1` [Comparative Example 4, 1,3-diphenyl-1,3-propanedione, reference compound], the “cNa, remaining aqueous phase R1” value [1, 7] is reported as 38.12 g/L, the “extraction rate for sodium ions” value [1, 7] is reported as 4.65% and the “cLi, remaining aqueous phase R1” value [2, 7] is reported as 0.186 g/L. The “extraction rate for lithium ions” value [2, 7] was 28.73%, the “separation factor of Li/Na” value [2, 7] was 8.3 and the “cK, remaining aqueous phase R1” value [3, 7] was 7.60 g/L.

In the case of `CCCCCCCCOc1ccc(C(=O)c2ccccc2)c(O)c1` [Example 10, 4-octyloxy-2-hydroxydibenzophenone], the “extraction rate for sodium ions” value [1, 8] is reported as 4.5%, the “extraction rate for lithium ions” value [2, 8] is reported as 9.8% and the “separation factor of Li/Na” value [2, 8] is reported as 2.3.

In the case of `CCCCCCCCOc1c([N+](=O)[O-])cc(C(=O)c2ccccc2)c(O)c1[N+](=O)[O-]` [Example 16, 4-octyloxy-2,5-dinitro-2-hydroxydibenzophenone], the “extraction rate for sodium ions” value [1, 7] is reported as 12.7%, the “extraction rate for lithium ions” value [2, 7] is reported as 88.5% and the “separation factor of Li/K” value [2, 7] is reported as 73.7. For the same molecule, the “separation factor of Li/Na” value [2, 7] was 52.9, the “cK, remaining aqueous phase R1” value [3, 7] was 6.89 g/L and the “extraction rate for potassium ions” value [3, 7] was 9.5%.

For “2-hydroxy-5-fluoroacetophenone [Example 40]”, the “cNa, remaining aqueous phase R1” value [1, 4] was 49.81 g/L, the “extraction rate for sodium ions” value [1, 4] was 10.4% and the “cLi, remaining aqueous phase R1” value [2, 4] was 0.417 g/L. For the same molecule, the “extraction rate for lithium ions” value [2, 4] was 50%, the “separation factor of Li/Na” value [2, 4] was 8.6 and the “cK, remaining aqueous phase R1” value [3, 4] was 4.86 g/L. The “extraction rate for potassium ions” value [3, 4] was 9.5%.

With `COc1ccc(C(=O)c2ccc(OC)cc2O)c(O)c1` [Example 28, 2,2'-dihydroxy-4,4'-dimethoxydibenzophenone] the “extraction rate for sodium ions” value [1, 5] was 3.4%, the “extraction rate for lithium ions” value [2, 5] was 83.6% and the “separation factor of Li/Na” value [2, 5] was 146.7.

In the case of `CCCCCCCOc1ccc(C(=O)c2ccccc2)c(O)c1` [Example 9, 4-heptoxy-2-hydroxydibenzophenone], the “extraction rate for sodium ions” value [1, 5] is reported as 6.2%, the “extraction rate for lithium ions” value [2, 5] is reported as 60.8% and the “separation factor of Li/Na” value [2, 5] is reported as 23.6.

In the case of `CCC(O)C(=O)c1ccccc1` (single isomer, unassigned) [Example 5, 2-hydroxybutyrophenone], the “extraction rate for sodium ions” value [1, 5] is reported as 6.8%, the “extraction rate for lithium ions” value [2, 5] is reported as 80.5% and the “separation factor of Li/Na” value [2, 5] is reported as 57.0.

For `CC1=NN(c2ccccc2)C(=O)C1C(=O)c1ccccc1` (stereo not shown) [Comparative Example 8, 1-phenyl-3-methyl-4-benzoyl-5-pyrazolone, reference compound], the “extraction rate for sodium ions” value [1, 5] was 4.40%, the “extraction rate for lithium ions” value [2, 5] was 7.43% and the “separation factor of Li/Na” value [2, 5] was 1.74.
